Columns and labels:
myeloperoxidase (MPO) [1] = biological target: T1, myeloperoxidase (MPO) (Homo sapiens (Human), UniProt P05164); test: MPO peroxidation assay (Amplex Red assay); format: biochemical; details: potency range class
Method in brief: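 IC50 values come from a four-parameter fit of rates taken from the linear 180-540 s portion of a 15 min kinetic read of resorufin (Ex 535/Em 590 nm). Amplex Red (200 μM) plus 10 mM H2O2 was added after a 10 min room-temperature preincubation of inhibitor with 200 pM MPO and 40 nM H2O2 in 100 mM KPi, pH 7.4.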

myeloperoxidase (MPO) [2] = biological target: T1, myeloperoxidase (MPO); test: MPO chlorination assay (APF assay); format: biochemical; details: potency range class
Method in brief: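 Chlorinating activity followed by APF cleavage to fluorescein (485/535 nm, 3 min kinetic read) after adding APF and 10 μM H2O2. Beforehand, 200 pM enzyme, compound and 120 mM NaCl sat 10 min at room temperature in 100 mM KPi, pH 7.4. Initial-rate slopes gave % inhibition; IC50 by Hill-slope fit.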

T1 sequence (P05164 49-745): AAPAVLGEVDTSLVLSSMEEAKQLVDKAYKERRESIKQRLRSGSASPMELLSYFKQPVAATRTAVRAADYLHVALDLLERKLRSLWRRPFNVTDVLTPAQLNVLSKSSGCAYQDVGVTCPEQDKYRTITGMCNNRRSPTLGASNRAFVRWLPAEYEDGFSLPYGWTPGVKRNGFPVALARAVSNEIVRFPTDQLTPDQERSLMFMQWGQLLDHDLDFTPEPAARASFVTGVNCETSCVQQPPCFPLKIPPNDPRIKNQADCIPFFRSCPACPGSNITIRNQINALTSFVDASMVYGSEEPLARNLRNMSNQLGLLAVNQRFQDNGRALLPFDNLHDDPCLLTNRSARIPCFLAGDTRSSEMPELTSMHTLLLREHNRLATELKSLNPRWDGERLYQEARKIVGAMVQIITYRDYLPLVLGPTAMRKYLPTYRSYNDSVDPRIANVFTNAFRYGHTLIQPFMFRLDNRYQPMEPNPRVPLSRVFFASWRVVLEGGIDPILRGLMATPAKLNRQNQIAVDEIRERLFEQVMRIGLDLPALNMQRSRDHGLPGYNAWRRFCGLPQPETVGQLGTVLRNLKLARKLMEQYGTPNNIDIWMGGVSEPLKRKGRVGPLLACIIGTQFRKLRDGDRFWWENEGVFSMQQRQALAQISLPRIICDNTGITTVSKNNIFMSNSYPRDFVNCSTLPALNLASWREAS

| Structure (SMILES) | IC50 (myeloperoxidase (MPO) [1]) | IC50 (myeloperoxidase (MPO) [2]) |
| --- | --- | --- |
| Cc1ccc([C@H]2CNC(=O)C2)cc1Cn1cc(Cc2cc(N)nc3[nH]nnc23)cn1 [Example 192, (4S)-4-(3-{[4-({5-Amino-3H-[1,2,3]triazolo[4,5-b]pyridin-7-yl}methyl)-1H-pyrazol-1-yl]methyl}-4-methylphenyl)pyrrolidin-2-one] | 101 to 999 nM | 101 to 999 nM |
| COc1cc(Cn2cc(Cc3cc(N)nc4[nH]nnc34)cn2)cc([C@@H]2CCNC2)c1 [Example 197, 7-{[1-({3-Methoxy-5-[(3S)-pyrrolidin-3-yl]phenyl}methyl)-1H-pyrazol-4-yl]methyl}-3H-[1,2,3]triazolo[4,5-b]pyridin-5-amine] | 1 to 100 nM | 1 to 100 nM |
| Nc1cc(Cc2cnn(Cc3cc([C@@H]4CCNC4)ccc3Cl)c2)c2nn[nH]c2n1 [Example 198, 7-{[1-({2-Chloro-5-[(3 S)-pyrrolidin-3-yl]phenyl}methyl)-1H-pyrazol-4-yl]methyl}-3H-[1,2,3]triazolo[4,5-b]pyridin-5-amine] | 1 to 100 nM | 101 to 999 nM |
| Nc1cc(Cc2cnn(Cc3cc([C@@H]4CCNC4)cc(F)c3F)c2)c2nn[nH]c2n1 [Example 199, 7-{[1-({2,3-Difluoro-5-[(3S)-pyrrolidin-3-yl]phenyl}methyl)-1H-pyrazol-4-yl]methyl}-3H-[1,2,3]triazolo[4,5-b]pyridin-5-amine] | 1 to 100 nM | 1 to 100 nM |
| Nc1cc(Cc2cnn(Cc3cc([C@@H]4CCNC4)ccc3OC(F)F)c2)c2nn[nH]c2n1 [Example 200, 7-[(1-{[2-(Difluoromethoxy)-5-[(3 S)-pyrrolidin-3-yl]phenyl]methyl}-1H-pyrazol-4-yl)methyl]-3H-[1,2,3]triazolo[4,5-b]pyridin-5-amine] | 1 to 100 nM | 1 to 100 nM |
| Nc1cc(Cc2cnn(Cc3cc([C@@H]4CC(=O)NC4CO)cc(C(F)(F)F)c3)c2)c2nn[nH]c2n1 (stereo partly drawn) [Example 201, (4S)-4-(3-{[4-({5-Amino-3H-[1,2,3]triazolo[4,5-b]pyridin-7-yl}methyl)-1H-pyrazol-1-yl]methyl}-5-(trifluoromethyl)phenyl)-5-(hydroxymethyl)pyrrolidin-2-one] | 1 to 100 nM | 1 to 100 nM |
| CC1C[C@@H](c2cccc(Cn3cc(Cc4cc(N)nc5[nH]nnc45)cn3)c2)CN1 (stereo partly drawn) [Example 202, 7-{[1-({3-[(3S)-5-Methylpyrrolidin-3-yl]phenyl}methyl)-1H-pyrazol-4-yl]methyl}-3H-[1,2,3]triazolo[4,5-b]pyridin-5-amine] | 1 to 100 nM | 1 to 100 nM |

Further lines, results first:

| IC50 (myeloperoxidase (MPO) [1]) | IC50 (myeloperoxidase (MPO) [2]) | Structure (SMILES) |
| --- | --- | --- |
| 1 to 100 nM | 101 to 999 nM | Nc1cc(Cc2cnn(Cc3cc([C@@H]4CCNC4)ccc3C(F)(F)F)c2)c2nn[nH]c2n1 [Example 193, 7-{[1-({5-[(3S)-Pyrrolidin-3-yl]-2-(trifluoromethyl)phenyl}methyl)-1H-pyrazol-4-yl]methyl}-3H-[1,2,3]triazolo[4,5-b]pyridin-5-amine] |
| 1 to 100 nM | 1000 to 10000 nM | Cc1ccc([C@@H]2CCNC2)cc1Cn1cc(Cc2cc(N)nc3[nH]nnc23)cn1 [Example 194, 7-{[1-({2-Methyl-5-[(3S)-pyrrolidin-3-yl]phenyl}methyl)-1H-pyrazol-4-yl]methyl}-3H-[1,2,3]triazolo[4,5-b]pyridin-5-amine] |
| 1 to 100 nM | 1 to 100 nM | Nc1cc(Cc2cnn(Cc3cc(F)cc([C@@H]4CCNC4)c3)c2)c2nn[nH]c2n1 [Example 195, 7-{[1-({3-Fluoro-5-[(3S)-pyrrolidin-3-yl]phenyl}methyl)-1H-pyrazol-4-yl]methyl}-3H-[1,2,3]triazolo[4,5-b]pyridin-5-amine] |
| 1 to 100 nM | 1 to 100 nM | Nc1cc(Cc2cnn(Cc3cc(Cl)cc([C@@H]4CCNC4)c3)c2)c2nn[nH]c2n1 [Example 196, 7-{[1-({3-Chloro-5-[(3S)-pyrrolidin-3-yl]phenyl}methyl)-1H-pyrazol-4-yl]methyl}-3H-[1,2,3]triazolo[4,5-b]pyridin-5-amine] |

Source: patent US10407422B2, “Triazolopyridine inhibitors of myeloperoxidase” (priority 2015, dated 2019)
